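Briefly, cells in 96-well plates were exposed to five compound concentrations for 48 h, and endpoints were estimated by linear interpolation. GI50 marks 50% less growth.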 The source made the active and inactive calls. Cut-off read from the data, not from the text of the source: active = GI50 up to about 1.1 µM and inactive = higher.
Tests used:
Experiment in all cases: NCI tumour cell line growth inhibition, 48 h
M14 = tested on: M14
T47D = tested on: T47D
SK-OV-3 = tested on: SK-OV-3
OVCAR-3 = tested on: OVCAR-3
SF-268 = tested on: SF-268
MCF7 = tested on: MCF7
SK-MEL-2 = tested on: SK-MEL-2
NCI-H23 = tested on: NCI-H23
CCRF-CEM = tested on: CCRF-CEM
TK-10 = tested on: TK-10
HOP-62 = tested on: HOP-62
BT-549 = tested on: BT-549
U-251 = tested on: U-251
MDA-N = tested on: MDA-N
UO-31 = tested on: UO-31
786-0 = tested on: 786-0
PC-3 = tested on: PC-3
MDA-MB-435 = tested on: MDA-MB-435
RXF 393 = tested on: RXF 393

SMILES | GI50 (M14) | GI50 (T47D) | GI50 (SK-OV-3) | GI50 (OVCAR-3) | GI50 (SF-268) | GI50 (MCF7) | GI50 (SK-MEL-2) | GI50 (NCI-H23) | GI50 (CCRF-CEM) | GI50 (TK-10) | GI50 (HOP-62) | GI50 (BT-549) | GI50 (U-251) | GI50 (MDA-N) | GI50 (UO-31) | GI50 (786-0) | GI50 (PC-3) | GI50 (MDA-MB-435) | GI50 (RXF 393)
Cc1ccc2ccccc2c1CSc1nc(N)nc2c1ncn2CC(C)C | 17.3 µM (inactive) | 5.05 µM (inactive) | 30.5 µM (inactive) | 14.4 µM (inactive) | 45.8 µM (inactive) | 12.9 µM (inactive) | 17 µM (inactive) | 24.4 µM (inactive) | 6.15 µM (inactive) | 29.6 µM (inactive) | 28.9 µM (inactive) | 39.4 µM (inactive) | 18.2 µM (inactive) | 15.7 µM (inactive) | 2.79 µM (inactive) | 21.4 µM (inactive) | 13.9 µM (inactive) | 10.3 µM (inactive) | 10.7 µM (inactive)
CC[C@@]1(O)C(=O)OCc2c1cc1n(c2=O)Cc2cc3c(NC(=O)CN)cccc3nc2-1 | 0.098 µM (active) | < 0.0236 µM (active) | 0.13 µM (active) | 2.17 µM (inactive) | < 0.024 µM (active) | 0.0466 µM (active) | 3.7 µM (inactive) | 0.114 µM (active) | < 0.01 µM (active) | 10.4 µM (inactive) | 0.109 µM (active) | 0.171 µM (active) | 0.0906 µM (active) | 2.1 µM (inactive) | 0.191 µM (active) | 0.0612 µM (active) | 4.92 µM (inactive) | 1.49 µM (inactive) | < 0.0463 µM (active)
COc1ccc(/N=C/N(C)C)c(C)c1 | 13.6 µM (inactive) | 9.55 µM (inactive) | 18.7 µM (inactive) | 2.36 µM (inactive) | 19 µM (inactive) | 8.26 µM (inactive) | 5.15 µM (inactive) | 2 µM (inactive) | 3.28 µM (inactive) | 19.8 µM (inactive) | 18.3 µM (inactive) | 18.3 µM (inactive) | 4.28 µM (inactive) | 6.18 µM (inactive) | 26.1 µM (inactive) | 13.6 µM (inactive) | 3.17 µM (inactive) | 6.08 µM (inactive) | 10.6 µM (inactive)
Cc1ccc2c(=O)cc(-c3ccc(-c4ccccc4)s3)[nH]c2n1 | > 100 µM (inactive) | > 76.7 µM (inactive) | 44.5 µM (inactive) | 24.8 µM (inactive) | > 63 µM (inactive) | 3.27 µM (inactive) | > 100 µM (inactive) | 22.1 µM (inactive) | > 25.2 µM (inactive) | > 48.3 µM (inactive) | 30.6 µM (inactive) | > 33.6 µM (inactive) | 16.4 µM (inactive) | 4.98 µM (inactive) | 0.0305 µM (active) | 16.1 µM (inactive) | 6.03 µM (inactive) | 5.33 µM (inactive) | > 59.8 µM (inactive)
Cc1cc(-c2nc3ccc(F)cc3s2)ccc1NC(=O)C(N)CCCCN (stereo not given) | 3.29 µM (inactive) | 0.027 µM (active) | 13.3 µM (inactive) | 7.83 µM (inactive) | 6.7 µM (inactive) | 0.0184 µM (active) | 10.1 µM (inactive) | 4.73 µM (inactive) | 2.71 µM (inactive) | 0.0731 µM (active) | 3.22 µM (inactive) | 14.4 µM (inactive) | 2.11 µM (inactive) | 2.52 µM (inactive) | 2.69 µM (inactive) | 3.21 µM (inactive) | 9.53 µM (inactive) | 2.17 µM (inactive) | 10.4 µM (inactive)
CCOC(=O)C(CCSC)(CCSC)C(=O)OCC | > 100 µM (inactive) | > 100 µM (inactive) | 27.7 µM (inactive) | > 100 µM (inactive) | > 100 µM (inactive) | > 100 µM (inactive) | > 100 µM (inactive) | > 100 µM (inactive) | > 100 µM (inactive) | > 100 µM (inactive) | > 100 µM (inactive) | > 100 µM (inactive) | > 100 µM (inactive) | > 100 µM (inactive) | > 100 µM (inactive) | > 100 µM (inactive) | > 100 µM (inactive) | > 100 µM (inactive) | > 100 µM (inactive)
CC(C)(C)C1CCC2c3c([nH]c4ccccc34)C3C(=O)N(c4cccc([N+](=O)[O-])c4)C(=O)C3C2C1 (stereo not given) | 37.6 µM (inactive) | 28.8 µM (inactive) | > 100 µM (inactive) | 35.6 µM (inactive) | 21 µM (inactive) | 32.5 µM (inactive) | 24.5 µM (inactive) | 15.5 µM (inactive) | > 100 µM (inactive) | 38.5 µM (inactive) | 29.6 µM (inactive) | 17 µM (inactive) | > 100 µM (inactive) | 18.2 µM (inactive) | 35.2 µM (inactive) | 17.4 µM (inactive) | 27 µM (inactive) | 16.1 µM (inactive) | 54 µM (inactive)
Clc1ccc(/C=C/c2nc(Cl)c(-c3ccc(Cl)cc3)c(Cl)n2)cc1 | 29.7 µM (inactive) | 38.3 µM (inactive) | > 100 µM (inactive) | > 100 µM (inactive) | > 100 µM (inactive) | 45.5 µM (inactive) | 25.6 µM (inactive) | 27.1 µM (inactive) | 20.4 µM (inactive) | 62.5 µM (inactive) | > 100 µM (inactive) | > 100 µM (inactive) | 40.6 µM (inactive) | 59.4 µM (inactive) | 13.6 µM (inactive) | 43.8 µM (inactive) | 42.6 µM (inactive) | 53.2 µM (inactive) | 53.8 µM (inactive)
COC(=O)[C@@]12CSC[C@]1(C(=O)OC)N[C@@H](c1ccccc1O)C2 | > 100 µM (inactive) | > 100 µM (inactive) | > 100 µM (inactive) | > 100 µM (inactive) | > 100 µM (inactive) | > 100 µM (inactive) | > 100 µM (inactive) | > 100 µM (inactive) | > 100 µM (inactive) | > 100 µM (inactive) | > 100 µM (inactive) | > 100 µM (inactive) | > 100 µM (inactive) | > 100 µM (inactive) | > 100 µM (inactive) | > 100 µM (inactive) | > 100 µM (inactive) | > 100 µM (inactive) | > 100 µM (inactive)
CSc1c(C#N)c(N)nc2c(/N=N\c3ccc(Br)cc3)c(N)nn12 | 8.83 µM (inactive) | 2 µM (inactive) | 21.2 µM (inactive) | 2.95 µM (inactive) | 5.82 µM (inactive) | 3.16 µM (inactive) | 4.48 µM (inactive) | 6.25 µM (inactive) | 3.12 µM (inactive) | 15 µM (inactive) | 11.4 µM (inactive) | 12.4 µM (inactive) | 6.58 µM (inactive) | 6.71 µM (inactive) | 14.8 µM (inactive) | 6.17 µM (inactive) | 8.3 µM (inactive) | 9.66 µM (inactive) | 7.57 µM (inactive)
Cc1ccnc(NC(NC(=O)c2ccccc2)(C(F)(F)F)C(F)(F)F)c1 | > 100 µM (inactive) | > 100 µM (inactive) | > 100 µM (inactive) | > 100 µM (inactive) | > 100 µM (inactive) | > 100 µM (inactive) | > 100 µM (inactive) | > 100 µM (inactive) | 75.9 µM (inactive) | > 100 µM (inactive) | > 100 µM (inactive) | > 100 µM (inactive) | > 100 µM (inactive) | > 100 µM (inactive) | > 100 µM (inactive) | > 100 µM (inactive) | > 100 µM (inactive) | > 100 µM (inactive) | > 100 µM (inactive)
Cc1ccccc1N/N=C1\C(=O)Nc2ccccc21 | > 100 µM (inactive) | > 100 µM (inactive) | > 100 µM (inactive) | > 100 µM (inactive) | > 100 µM (inactive) | > 100 µM (inactive) | > 100 µM (inactive) | > 100 µM (inactive) | > 100 µM (inactive) | > 100 µM (inactive) | > 100 µM (inactive) | > 100 µM (inactive) | > 100 µM (inactive) | > 100 µM (inactive) | > 100 µM (inactive) | > 100 µM (inactive) | > 100 µM (inactive) | > 100 µM (inactive) | > 100 µM (inactive)
COc1ccc2c(c1)nc1n2C(c2c(F)cccc2F)SC1 (stereo not given) | 56.9 µM (inactive) | 71.6 µM (inactive) | 40.8 µM (inactive) | 62.8 µM (inactive) | 32.2 µM (inactive) | 38.3 µM (inactive) | 31.6 µM (inactive) | 29 µM (inactive) | 47.5 µM (inactive) | 94.6 µM (inactive) | 76.4 µM (inactive) | 59 µM (inactive) | 55.7 µM (inactive) | 40 µM (inactive) | 56 µM (inactive) | 48.2 µM (inactive) | 27.8 µM (inactive) | 26.2 µM (inactive) | 53.7 µM (inactive)
O=C(CCCn1ccnc1[N+](=O)[O-])NCCn1cncc1[N+](=O)[O-] | > 100 µM (inactive) | > 100 µM (inactive) | > 100 µM (inactive) | > 100 µM (inactive) | > 100 µM (inactive) | > 100 µM (inactive) | > 100 µM (inactive) | > 100 µM (inactive) | > 100 µM (inactive) | > 100 µM (inactive) | > 100 µM (inactive) | > 100 µM (inactive) | > 100 µM (inactive) | > 100 µM (inactive) | > 100 µM (inactive) | > 100 µM (inactive) | > 100 µM (inactive) | > 100 µM (inactive) | > 100 µM (inactive)
CN(C)CCN1Nc2c3ccccc3nc3c(C(=O)NCCCN(C)CCCNC(=O)c4ccc5c6c(c7ccccc7nc46)NN5CCN(C)C)ccc1c23 | 0.0353 µM (active) | 0.153 µM (active) | < 0.01 µM (active) | 0.0333 µM (active) | 0.0112 µM (active) | < 0.01 µM (active) | 0.0109 µM (active) | 0.0202 µM (active) | 0.0274 µM (active) | 0.132 µM (active) | 0.0104 µM (active) | 0.178 µM (active) | < 0.01 µM (active) | < 0.01 µM (active) | 0.0692 µM (active) | < 0.01 µM (active) | < 0.01 µM (active) | < 0.01 µM (active) | 0.15 µM (active)
